# Measurements from patent publication EP0537092A1, “Infracellular vesicular vectors and their application in cosmetic and medical compositions and culture media” (priority 1991, dated 1993).
# Like-named read-outs stand apart in the source and are kept apart here.
# Experiments:
# Format in all cases: cell-based, humaine
# fibroblastes [1] = conditions: for prolifération des fibroblastes traités avec le Palmitate d'hydroxyproline: 10^4 cellules par puit
# Protocol: (§1) Les résultats des essais présentés ci-après ont été obtenus selon la méthodologie suivante : Conditions de culture : les fibroblastes sont obtenus à partir d'explants de peau humaine. Les cellules sont maintenues en culture dans du milieu DMEM (Gibco) additionné de 10 % de sérum de veau foetal (Gibco) et d'antibiotiques (pénicilline 100 U/ml, streptomycine 100 µg/ml).
# (§2) Les subcultures sont réalisées par trypsination (Trypsin-EDTA, Gibco). Les cellules sont utilisées du 2e au 10e passage.
# (§3) Conditions de traitements : Les cultures de fibroblastes témoins se réferent aux cultures avec vecteurs sans principe actif, en quantité similaire aux autres traitements. Les cultures traitées avec la molécule en solution se réfèrent aux conditions de la culture témoin et de la molécule sous forme soluble.
# (§4) Les cultures traitées avec la forme vectoriale de la molécule impliquent que la molécule active soit inclue préalablement dans les vecteurs.
# […] Puis on ajoute le sel de tétrazolium jaune (5 mg / ml). Il est réduit par les réductases mitochondriales des cellules vivantes en un produit formazan violet qui est ensuite solubilisé par de l'HCl 0,04 N dans de l'isopropanol.
# La réaction colorée est lue à une longueur d'onde de 570 nm par un Multiskan Titertek (Flow Laboratories) et exprimée en densité optique.
# collagène de type III = assay: radioimmunoassay of soluble collagen type III in fibroblast culture supernatant
# Protocol: as §1, §2, §3, §4
# (§5) Evaluation des collagènes solubles par dosage radioimmunologique : On prélève 100 µl de surnageant de culture et on y ajoute 100 µl d'anticorps anticollagène de type I ou anti-collagène de type III et 200 µl de PBS.
# [2] = tested on: collagénase interstitielle (MMP-1); assay: collagenase activity in the culture medium of fibroblasts; conditions: for Collagénase: Temps : 48 h, factor of change (summary table)
# Protocol: as §1, §2, §3, §4
# Mesure de l'activité collagénasique dans le milieu de culture
# On mesure la collagénase interstitielle qui dégrade les collagènes interstitiels natifs de type I-III. • a) Préparation du substrat : le collagène de type I, marqué au carbone-14, en solution dans CH3COOH 0,1 M est neutralisé à pH 7,4 par du Tris 1 M et dilué avec le tampon NaCl 0,15 M/CaCl2, 4 mM/Tris-HCl 50 mM, pH 7,4 contenant du NEM 0,5 mM et du PMSF 0,1mM à raison de […] substrat (= 10000 cpm/essai). • b) Dosage de la collagénase: 100 µl de milieu sont activés par 10 µl de trypsine (1 mg/ml) à 37°C pendant 10 mn, suivi de l'addition de 10 µl de SBTI (5 mg/ml): 10 mn à température ambiante. 100 µl de milieu sont aussi testés sans activation par la trypsine (mesure de la forme active de l'enzyme).
# Le substrat (10000 cpm/essai) est ajouté, éventuellement en présence d'EDTA 25 mM, le volume final étant de 250 µl. La réaction se déroule pendant 18 h à 25°C puis est stoppée par addition de 20 µl d'EDTA 250 mM (10 mn à température ambiante).Le mélange est ensuite chauffé 10 mn à 39°C.
# Le collagène non dégradé est précipité par l'éthanol à la concentration finale de 18 % (30 mn à température ambiante).
# Finalement, le mélange est centrifugé à 6000 g pendant 30 mn à 4°C. Des aliquots de 200 µl des surnageants sont mélangés avec 5 ml de liquide scintillant aqueux puis comptés pour leur radioactivité.
# Une unité de collagénase est définie comme la quantité d'enzyme nécessaire pour dégrader 1 µg de collagène natif par heure à 25°C.
# fibroblastes [3] = assay: summary conclusion on modulation of fibroblast activity (Tableau 10); conditions: Temps : 48 h
# Description: Le tableau 10 ci-après résume les résultats obtenus. TABLEAU 10
# Ce tableau montre bien la capacité qu'ont les vecteurs selon l'invention à moduler l'activité des fibroblastes lorsqu'ils portent à leur surface certaines fonctions hydrophiles fixées sur ledit vecteur par un ester ou une amide d'acide gras.
# collagène de type I = tested on: collagène de type I
# Protocol: as §1, §2, §3, §4, §5
compound,measurement,setting,value
"CCCCCCCCCCCCCCCC(=O)OC[C@H](O)[C@H]1OC(=O)C(O)=C1O [palmitate d'ascorbyle en solution, palmitate d'ascorbyle]",Cytotoxicité Test MTT,"fibroblastes [1]; Temps : 48 h, 25 µg/ml",non
same,fold induction at 25 µg/mL,"collagène de type III; Skin fibroblast, Temps : 48 h, 25 µg/ml, factor of change (summary table), read-out: Synthèse collag. III",30
same,Collagénase,[2]; 25 µg/ml,=
same,CONCLUSION à 4.10⁵cell.,fibroblastes [3]; 25 µg/ml,Stimulants non sélectifs
Palmitate d'hydroxyproline [Palmitate d'hydroxyproline Solution],prolifération des fibroblastes traités avec le Palmitate d'hydroxyproline,"fibroblastes [1]; 24 heures, 1 µg / ml","0,493 ± 0,029 densité optique"
same,prolifération des fibroblastes traités avec le Palmitate d'hydroxyproline,"fibroblastes [1]; 24 heures, 5 µg / ml","0,492 ± 0,016 densité optique"
same,prolifération des fibroblastes traités avec le Palmitate d'hydroxyproline,"fibroblastes [1]; 24 heures, 10 µg / ml","0,502 ± 0,019 densité optique"
same,prolifération des fibroblastes traités avec le Palmitate d'hydroxyproline,"fibroblastes [1]; 24 heures, 20 µg / ml","0,457 ± 0,022 densité optique"
same,prolifération des fibroblastes traités avec le Palmitate d'hydroxyproline,"fibroblastes [1]; 48 heures, 1 µg / ml","0,494 ± 0,012 densité optique"
same,prolifération des fibroblastes traités avec le Palmitate d'hydroxyproline,"fibroblastes [1]; 48 heures, 5 µg / ml","0,513 ± 0,025 densité optique"
same,prolifération des fibroblastes traités avec le Palmitate d'hydroxyproline,"fibroblastes [1]; 48 heures, 10 µg / ml","0,511 ± 0,020 densité optique"
same,prolifération des fibroblastes traités avec le Palmitate d'hydroxyproline,"fibroblastes [1]; 48 heures, 20 µg / ml","0,471 ± 0,028 densité optique"
same,prolifération des fibroblastes traités avec le Palmitate d'hydroxyproline,"fibroblastes [1]; 72 heures, 1 µg / ml","0,490 ± 0,019 densité optique"
same,prolifération des fibroblastes traités avec le Palmitate d'hydroxyproline,"fibroblastes [1]; 72 heures, 5 µg / ml","0,500 ± 0,028 densité optique"
same,prolifération des fibroblastes traités avec le Palmitate d'hydroxyproline,"fibroblastes [1]; 72 heures, 10 µg / ml","0,496 ± 0,017 densité optique"
same,dose à partir de laquelle une cytotoxicité est détectée,"fibroblastes [1]; human, skin fibroblasts",≥ 20 µg/mL
same,synthèse de collagène type I par des fibroblastes traités avec le palmitate d'hydroxyproline,"collagène de type I; 24 heures, 1 µg/ml",268 ± 18 ng/mL
same,synthèse de collagène type I par des fibroblastes traités avec le palmitate d'hydroxyproline,"collagène de type I; 24 heures, 5 µg/ml",232 ± 10 ng/mL
same,synthèse de collagène type I par des fibroblastes traités avec le palmitate d'hydroxyproline,"collagène de type I; 48 heures, 1 µg/ml",519 ± 37 ng/mL
same,synthèse de collagène type I par des fibroblastes traités avec le palmitate d'hydroxyproline,"collagène de type I; 72 heures, 1 µg/ml",513 ± 77 ng/mL
same,synthèse de collagène type I par des fibroblastes traités avec le palmitate d'hydroxyproline,"collagène de type I; 72 heures, 5 µg/ml",470 ± 5 ng/mL
same,synthèse de collagène type III par des fibroblastes traités avec le palmitate d'hydroxyproline,"collagène de type III; 24 heures, 1 µg/ml",295 ± 24 ng/mL
same,synthèse de collagène type III par des fibroblastes traités avec le palmitate d'hydroxyproline,"collagène de type III; 24 heures, 5 µg/ml",281 ± 16 ng/mL
same,synthèse de collagène type III par des fibroblastes traités avec le palmitate d'hydroxyproline,"collagène de type III; 48 heures, 1 µg/ml",588 ± 69 ng/mL
same,synthèse de collagène type III par des fibroblastes traités avec le palmitate d'hydroxyproline,"collagène de type III; 48 heures, 5 µg/ml",519 ± 20 ng/mL
same,synthèse de collagène type III par des fibroblastes traités avec le palmitate d'hydroxyproline,"collagène de type III; 72 heures, 1 µg/ml",628 ± 161 ng/mL
same,synthèse de collagène type III par des fibroblastes traités avec le palmitate d'hydroxyproline,"collagène de type III; 72 heures, 5 µg/ml",548 ± 24 ng/mL
same,Collagénase,[2]; 40 µg/ml,=
same,dose qui stimule de manière significative la synthèse de la collagénase,[2]; cultures de fibroblastes,1 µg/mL
same,CONCLUSION à 4.10⁵cell.,fibroblastes [3]; 40 µg/ml,inhibit. des collagènes.
"O=C(O)[C@@H]1C[C@@H](O)CN1 [Hydroxyproline libre, Hydroxyproline]",Cytotoxicité Test MTT,"fibroblastes [1]; Temps : 48 h, 10 µg/ml",non
same,Prolifération,"fibroblastes [1]; Temps : 48 h, 10 µg/ml, factor of change (summary table)",=
same,fold induction at 10 µg/mL,"collagène de type III; Skin fibroblast, Temps : 48 h, 10 µg/ml, factor of change (summary table), read-out: Synthèse collag. III",2
same,Collagénase,[2]; 10 µg/ml,=
same,CONCLUSION à 4.10⁵cell.,fibroblastes [3]; 10 µg/ml,Stimulant sélectif du collagène I
